# Tests used:
# tyrosinase [1] = assay: Oxygen addition experiment, tyrosinase; type: biochemical
# Protocol: In a complete experiment, an enzyme at optimal pH and buffering salt concentration is reacted with 5 substrate concentrations in solution with noble gas at 1 atm. […] Controls are also run after evacuation of solution by vacuum. The reaction is monitored colorimetrically in a scanning spectrophotometer in real time, and the signals are treated mathematically to obtain rate and yield differences. Sample numbers are constant and sufficient to ensure significance of results. All parameters are independently controlled and measured, and more complex experiments are occasionally carried out.
# β-D-Glucosidase = assay: High pressure experiments, β-D-glucosidase; type: biochemical, Almonds
# Protocol: Experiments were conducted in pressure cells pressurized with additional test gas after solution was already saturated, at 2 atmospheres or at 3 atmospheres in real-time, or after pressurizing in a 1-liter cylinder for 1 hour or ~24 hours at 30.6 atmospheres and at 100 atmospheres.
# Rinse the cylinders with copious quantities of D.I. H2 O. Then rinse the cylinders with the second enzyme solution (glucosidase). Place a 25 ml aliquot of enzyme solution into each of 2 disposable gas cylinders. Shake the enzyme in each cylinder for several minutes and then remove a 5 ml sample for Control B and Control C.
# Remove cylinders to the dock, gassing with the appropriate gas; bring pressure slowly up to 30.6 atm. Let sit at the required pressure for 60 minutes. Slowly depressurize to 2 psi before bringing into the lab.
# Bring the cylinders back to the dock and repressurize to 100 atm with the appropriate gas. Let sit at the required pressure for 60 minutes. Slowly depressurize to 2 psi before bringing into the lab.
# Cuvettes were filled for the 2 atm experiments for both enzymes. Each cuvette was gassed 10×10 cc with the appropriate gas and refrigerated for 15 minutes prior to running. Serum vials were filled with 5 cc of the corresponding enzyme and gassed with 10×10 cc of the appropriate gas prior to running. The spectrophotometers were set up such that a continuous flow of each gas could be delivered to each spectro at all times. A 100 psimax gauge was installed to read the cuvette pressure and 2 on/off valves were installed so that the reference cell could be pressurized during the second replicate. A ball valve was installed between the cylinder/house line and the gauge so that gas flow could be controlled directly at the spectrophotometers. A check valve was placed in each line to ensure that a back pressure would not cause contamination of the house lines or the gas cylinders. The cuvettes retained the 2 needles during the entire run. One of the needles was attached to the gas line while the second was used for enzyme introduction and then plugged. Due to the bulky nature of the assembly it was impossible to use the installed doors of the spectrophotometers therefore they were removed. A 4-layer thick black felt cover was prepared for each spectro to minimize the amount of light entering the system.
# While the cuvette was equilibrating to temperature in the spectrophotometer both needles remained in the cuvette with 10 cc syringes still attached. Prior to enzyme introduction one of the syringes was removed while the gas line was attached to the needle. A small flow of gas run through the line while this was done to ensure that there was no oxygen contamination. The needles remained above the liquid level. The second syringe was removed to allow constant flow through the cuvette. The enzyme was injected through the second needle using a 1 cc syringe. The needle was then plugged, the cuvette pressurized and the run begun.
# A nonpressurized gas run using all four gases was done for each enzyme. Each cuvette was gassed with 10×10 cc of the corresponding gas and refrigerated for 15 minutes. The 2 needles used for gassing the cuvettes were removed when the cuvettes were placed into the spectrophotometer. Enzyme was introduced into the cuvettes using a 1 cc syringe with a 20G11/2 needle attached. The needle was placed into the cuvette through the silicone plug but not immersed into the liquid. This was to ensure that enzyme introduction into the cuvette was the same as for the pressurized gas run.
# The same method as used in Trial 2 on Apr. 30, 1991 was used for this trial.
# At 3 atmospheres pressure, the degree of enhancement observed was changed as follows: […]
# Tyrosinase [2] = assay: High pressure experiments, tyrosinase; type: biochemical, Mushroom; settings: for % inhibition of gases relative to 1 atmosphere of air: value before the slash (not pressurized)
# Protocol: Shake the enzyme in each cylinder for several minutes and then remove a 5 ml sample for Control B and Control C. Remove cylinders to the dock, gassing with the appropriate gas; bring pressure slowly up to 30.6 atm. Let sit at the required pressure for 60 minutes. Slowly depressurize to 2 psi before bringing into the lab. Bring the cylinders back to the dock and repressurize to 100 atm with the appropriate gas. Let sit at the required pressure for 60 minutes. Slowly depressurize to 2 psi before bringing into the lab. […] Shake the enzyme in each cylinder for several minutes and then remove a 5 ml sample for Control B and Control C. Remove cylinders to the dock, gassing with the appropriate gas. Remove headspace/residual gas by pressurizing and depressurizing the gas cylinder several times. Bring pressure slowly up to 30.6 atm. Let sit at the required pressure for 60 minutes. Slowly depressurize to 40 psi before bringing into the lab. Enzyme injection: […] The cylinders were pressurized as described above. The cylinder pressure was released and the cylinders repressurized 10 times to remove O2 from the cylinders. Final Pressurization: […] Cylinder 3 was pressurized to 1 atm with Xe then pressurized to 30.6 atm with N2 to conserve Xe. Time Table: […] Due to the fact that on 4/25/91 the spectrophotometers were being used at 5° C. for a different experiment the decision was made to sample the cylinders at the end of the day when the spectrophotometer was available to be put at 25° C. Sampling took place 28 hours after pressurization. A spectro/gas run was immediately preformed on these samples. Apr. 25, 1991 Repressurization: Cylinders were repressurized at 6:00 pm on 4/25/91 to 100 atm. These cylinders will be sampled at 2:00 pm Apr. 26, 1991 (20 hrs after pressurization). Cuvettes were filled for the 2 atm experiments for both enzymes. Each cuvette was gassed 10×10 cc with the appropriate gas and refrigerated for 15 minutes prior to running. Serum vials were filled with 5 cc of the corresponding enzyme and gassed with 10×10 cc of the appropriate gas prior to running. The spectrophotometers were set up such that a continuous flow of each gas could be delivered to each spectro at all times. A 100 […] gauge was installed to read the cuvette pressure and 2 on/off valves were installed so that the reference cell could be pressurized during the second replicate. A ball valve was installed between the cylinder/house line and the gauge so that gas flow could be controlled directly at the spectrophotometers. A check valve was placed in each line to ensure that a back pressure would not cause contamination of the house lines or the gas cylinders. The cuvettes retained the 2 needles during the entire run. One of the needles was attached to the gas line while the second was used for enzyme introduction and then plugged. Due to the bulky nature of the assembly it was impossible to use the installed doors of the spectrophotometers therefore they were removed. A 4-layer thick black felt cover was prepared for each spectro to minimize the amount of light entering the system. While the cuvette was equilibrating to temperature in the spectrophotometer both needles remained in the cuvette with 10 cc syringes still attached. Prior to enzyme introduction one of the syringes was removed while the gas line was attached to the needle. A small flow of gas run through the line while this was done to ensure that there was no oxygen contamination. The needles remained above the liquid level. The second syringe was removed to allow constant flow through the cuvette. The enzyme was injected through the second needle using a 1 cc syringe. The needle was then plugged, the cuvette pressurized and the run begun. A nonpressurized gas run using all four gases was done for each enzyme. Each cuvette was gassed with 10×10 cc of the corresponding gas and refrigerated for 15 minutes. The 2 needles used for gassing the cuvettes were removed when the cuvettes were placed into the spectrophotometer. […]
# [3] = after addition of oxygen up to a saturating amount to the gas-saturated solution
# [4] = gas-saturated solution before addition of oxygen
# [5] = at 3 atmospheres pressure (value after the > sign), minus = inhibition
# [6] = before pressurization (value before the > sign)
# [7] = 30.6 atm (24 hr), Xe = Xe 1 atm/N2 to pressure
# [8] = 100 atm (~24 hr), Xe = Xe 1 atm/N2 to pressure
Compound,inhibition (tyrosinase [1]; [3]),inhibition (tyrosinase [1]; [4]) [%],degree of enhancement observed (β-D-Glucosidase; [5]),degree of enhancement observed (β-D-Glucosidase; [6]),inhibition relative to 1 atmosphere after pressurization (Tyrosinase [2]; 2 atm) [%],% inhibition of gases relative to 1 atmosphere of air (Tyrosinase [2]; 2 atm experiment) [%],inhibition relative to 1 atmosphere after pressurization (Tyrosinase [2]; 3 atm) [%],% inhibition of gases relative to 1 atmosphere of air (Tyrosinase [2]; 3 atm experiment) [%],"effect on β-glucosidase (β-D-Glucosidase; 30 atm. pressure, FIG. 38)","effect on β-glucosidase (β-D-Glucosidase; 100 atm. pressure, 25° C., FIG. 37)","effect on tyrosinase (Tyrosinase [2]; 30 atm. pressure, FIG. 39)",inhibition relative to 1 atmosphere after pressurization (Tyrosinase [2]; 30.6 atm (1 hr)) [%],inhibition relative to 1 atmosphere after pressurization (Tyrosinase [2]; [7]) [%],inhibition relative to 1 atmosphere after pressurization (Tyrosinase [2]; 100 atm (1 hr)) [%],inhibition relative to 1 atmosphere after pressurization (Tyrosinase [2]; [8]) [%],"effect on tyrosinase (Tyrosinase [2]; 100 atm. pressure, FIG. 40)",change in relative effect (Tyrosinase [2]; effect of pressure) [%]
"[Ar] [Ar, argon]",12%,82,-13.2,+1.0,-90.4,-76.9,-72.1,-55.8,,,,,,,,,
"N#N [N2, nitrogen, reference compound]",zero inhibition,84,-5.0,0,-88.5,-71.2,-82.6,-72.1,inhibitory effect,inhibitory effect,inhibitory effect,-15.4,-78.8,-20.0,-84.7,inhibitory effect,
"[Kr] [Kr, krypton]",,,-6.2,+2.0,-93.1,-84.5,,,,,,,,,,,
"[Xe] [Xe, xenon]",50%,85,-15.7,+3.1,-86.2,-76.0,,,,,inhibitory effect,,-87.0,,-85.7,inhibitory effect,75
"[Ne] [Ne, neon]",,,-12.5,+1.0,-84.5,-69.0,,,,,,,,,,,

# Source: patent US5462861A, “Method for improving enzyme activities with noble gases” (American Air Liquide, Chicago Research Center, priority 1993, dated 1995)
